Test results taken from US8629169B2, “4-substituted-3-phenylsulfanylmethyl-bicyclo[3.1.0]hexane compounds as mGluR 2/3 antagonists” (Eli Lilly and Company, priority 2010, dated 2014).

Legend:
male Wistar rats = test: Wakefulness and behavioral monitoring in rats (EEG/EMG/LMA); format: in vivo; conditions: rat; for Locomotor Activity Intensity, mean difference from vehicle controls: averaged over the first 7 hr post-treatment; for Cumulative Time Awake 8-19 hours, mean difference from vehicle controls: rebound hypersomnolence measure
Procedure: Representative compounds of the present invention are tested in rats for their ability to increase the amount of time in a state of wakefulness without undesired effects such as inhibition of REM sleep, waking motor impairment (disproportionate hyper- or hypolocomotion), and/or rebound hypersomnia Test animals are continuously monitored by electro-encephalograms (EEG), electromyograms (EMG), and motion to measure cumulative time awake, rebound hypersomnia, and locomotor activity intensity during wakefulness. Methods for such studies are known in the art (see for example methods described in Edgar D M, Seidel W F. Modafinil induces wakefulness without intensifying motor activity or subsequent rebound hypersomnolence in the rat. J Pharmacology & Experimental Therapeutics 1997; 283: 757-769; van Gelder R N, Edgar D M, Dement W C. Real-time automated sleep scoring: validation of a microcomputer-based system for mice. Sleep 1991, 14: 48-55; and Gross B A, Walsh C M, Turakhia A A, Booth V, Mashour G A, Poe G R. Open-source logic-based automated sleep scoring software using electrophysiological recordings in rats. J Neurosci Methods. 2009; 184(1):10-8.) Studies are conducted as follows:
Adult, male Wistar rats (approximately 270-300 g at time of surgery) are surgically fitted for chronic recording of EEG, EMG, body temperature, and motion as follows: Rats are surgically prepared with a cranial implant consisting of four stainless steel screws for EEG recording (two frontal [3.9 mm anterior from bregma, and ±2.0 mm mediolaterally] and two occipital [6.4 mm posterior from bregma, ±5.5 mm mediolaterally]), and with two Teflon-coated stainless steel wires for EMG recording (positioned under the nuchal trapezoid muscles). All leads are soldered to a miniature connector (Microtech, Boothwyn, Pa.) prior to surgery. The implant assembly is affixed to the skull by the combination of the stainless steel EEG recording screws, cyanoacrylate applied between the implant connector and skull, and dental acrylic. Body temperature and locomotor activity is monitored via a miniature transmitter (Minimitter PDT4000G, Philips Respironics, Bend, Oreg.) surgically placed into the abdomen. At least 3 weeks are allowed for recovery.
Each rat is housed individually within a microisolator cage modified with an inserted polycarbonate filter-top riser to allow more vertical headroom. A flexible cable that minimally restricts movement is connected at one end to a commutator affixed to the cage top and at the other end to the animal's cranial implant. Each cage is located within separate, ventilated compartments of a stainless steel sleep-wake recording chamber. Food and water are available ad libitum and the ambient temperature is maintained at about 23±1° C. A 24-hr light-dark cycle (LD 12:12) using fluorescent light is maintained throughout the study. Relative humidity averages approximately 50%. Animals are undisturbed for at least 30 hrs before and after each treatment.
The vehicle or one of the compound dose levels is administered pseudo-randomly such that no rat receives the same treatment twice, and no rat receives more than two of the 8 treatments in any one study. Each rat is removed from its cage for about a minute to be weighed and treated. At least 6 days “washout” period precede and follow each treatment.
Sleep and wakefulness discrimination may be automated (e.g., Van Gelder et al. 1991; Edgar et al. 1997, Winrow et al., 2010; Gross et al., 2009).

[1] = Brain and plasma exposure levels in the SSRI combination study; conditions: combination with fluoxetine or citalopram versus alone
[2] = tested on: mGlu2+/+ and mGlu2−/− mice; test: mFST in mGlu2 knock-out mice and +/+ littermates; conditions: 30 mg/kg, po, 120 min prior
Procedure: Briefly, male NIH-Swiss mice (Harlan Sprague-Dawley, Indianapolis, Ind.) weighing between 25-30 g are used. Group housed animals are removed from the vivarium to the testing area in their own cages and allowed to adapt to the new environment for at least 1 hour before testing. […] Mice are placed in a cylinder (diameter: 10 cm; height: 25 cm) filled with 6 cm of water (22-25° C.) for 6 min. The duration of immobility during the last 4 min. of the 6 min. period of the test was scored. A mouse is recorded as immobile when floating motionless or making only those movements necessary to keep its head above water.
In other experiments, mice with receptor deletions (mGlu2 knock-out mice) are studied; these mice are bred by heterozygote×heterozygote breeding and used as littermates for −/− and +/+ mouse comparisons (Taconic Farms).

mice = test: mFST alone and in combination with SSRI; format: in vivo, mouse; conditions: Example 12 10 mg/kg p.o.
male NIH-Swiss mice = test: Forced-swim test in mice (mFST); format: in vivo, mouse; conditions: p.o.
[3] = citalopram experiment, citalopram 1 mg/kg i.p.
[4] = fluoxetine experiment, fluoxetine 10 mg/kg i.p.

## CC(C)OC(=O)OCOC(=O)[C@H]1[C@@H]2[C@H](O)[C@@H](CSc3ccc(F)c(F)c3)[C@@](N)(C(=O)OCOC(=O)OC(C)C)[C@H]12.Cl [Example 12, Bis({[(1-methylethoxy)carbonyl]oxy}methyl)(1S,2R,3S,4S,5R,6R)-2-amino-3-{[(3,4-difluorophenyl)sulfanyl]methyl}-4-hydroxybicyclo[3.1.0]hexane-2,6-dicarboxylate hydrochloride]
Male Wistar rats; 10 mg/kg PO
  Cumulative Time Awake first 7 hours, mean difference from vehicle controls: 40.2 min
  Locomotor Activity Intensity, mean difference from vehicle controls: 4.5 counts of LMA per minute of EEG-defined wakefulness
  Cumulative Time Awake 8-19 hours, mean difference from vehicle controls: 12.1 min
Male Wistar rats; 30 mg/kg PO
  Cumulative Time Awake first 7 hours, mean difference from vehicle controls: 109.3 min
  Locomotor Activity Intensity, mean difference from vehicle controls: 3.0 counts of LMA per minute of EEG-defined wakefulness
  Cumulative Time Awake 8-19 hours, mean difference from vehicle controls: -4.1 min
Male Wistar rats; 60 mg/kg PO
  Cumulative Time Awake first 7 hours, mean difference from vehicle controls: 118.9 min
  Locomotor Activity Intensity, mean difference from vehicle controls: 4.9 counts of LMA per minute of EEG-defined wakefulness
  Cumulative Time Awake 8-19 hours, mean difference from vehicle controls: 2.7 min
[1]
  brain and plasma levels of the active di-acid moiety: no increase in exposure levels
[2]
  immobility time in mGlu2+/+ mice: decrease immobility time
mice; [3]
  Immobilization Time: 140 s
  Maximal Decrease (1 − compound/control) * 100%: 20.9%
mice; [4]
  Immobilization Time: 130 s
  Maximal Decrease (1 − compound/control) * 100%: 24.5%
Male NIH-Swiss mice; immobility, last 4 min of 6 min
  ED60 (mg/kg): 12.0 (p.o.) mg/kg
Male NIH-Swiss mice; immobilization time
  Maximal Decrease (1 − compound/control) * 100%: 58.4%
